For data set [1], the target named is T1, human H subunit (ATP6V1H) (Homo sapiens, UniProt Q9UI12).
T1 construct: GST (cleaved yes); host or cells: Rosetta2(DE3)pLysS (E. coli)
The data set can be described thus: Bio-layer interferometry (BLI). Format: binding. Conditions: biotinylated-249C on streptavidin sensors. An excerpt: Figure 4. […] (A) Model of the reversible assembly of V-ATPase. Cytosolic V1 subunits are depicted in blue and membrane Vo subunits in purple. Upon V-ATPase assembly, ATP is hydrolyzed to ADP accompanied by proton (H^+) pumping and luminal acidification (decrease in pH) (Created with BioRender). […] The amount of subunit B2 present in the membrane fraction indicates the amount of assembled V-ATPase. A representative Western blot is presented. […] Cells were mechanically lysed, and a fraction containing FITC-Dextran-loaded lysosomes was isolated by sedimentation centrifugation. Fluorescence was measured over time to assess pH-dependent quenching following addition of 1 mM magnesium-ATP (predetermined). […] Representative of 5 individual experiments with n = 3 for each is presented (mean ± SD) (D) Mammalian V-ATPase activity measured in the absence and presence of 1 μM 249C and 1 μM BafA1. Data shown are mean ± SD; n = 3. Bio-layer inferometry (BLI) of (E) the entire mammalian V-ATPase complex (association protein concentrations: 30, 60, 120, 240 nM) and (F) the individual human H subunit (ATP6V1H) (association protein concentrations: 16,800 and 21,000 nM) against biotinylated-249C loaded onto streptavidin sensor tips. A reference sensor was subtracted from the signal to blank the system. The ForteBio Octet® Software on the BLI system was used to calculate Kd s. […]
On the technique in general: In BLI a coated tip is dipped into the sample, and binding shifts an interference pattern.

For another data set, the target named is T2, Yeast V-ATPase (Saccharomyces cerevisiae, UniProt P25515+P41807).
T2 construct: V-ATPase was purified as described previously from yeast[82] using the detergent dodecylmaltoside; endogenous in cells; host or cells: yeast
T2 sequence (P25515 whole entry): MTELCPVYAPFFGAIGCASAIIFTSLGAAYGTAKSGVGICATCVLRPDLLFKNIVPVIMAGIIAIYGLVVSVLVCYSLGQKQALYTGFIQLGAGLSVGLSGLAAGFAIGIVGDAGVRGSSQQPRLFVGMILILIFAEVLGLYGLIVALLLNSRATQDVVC
T2 sequence (P41807 2-478): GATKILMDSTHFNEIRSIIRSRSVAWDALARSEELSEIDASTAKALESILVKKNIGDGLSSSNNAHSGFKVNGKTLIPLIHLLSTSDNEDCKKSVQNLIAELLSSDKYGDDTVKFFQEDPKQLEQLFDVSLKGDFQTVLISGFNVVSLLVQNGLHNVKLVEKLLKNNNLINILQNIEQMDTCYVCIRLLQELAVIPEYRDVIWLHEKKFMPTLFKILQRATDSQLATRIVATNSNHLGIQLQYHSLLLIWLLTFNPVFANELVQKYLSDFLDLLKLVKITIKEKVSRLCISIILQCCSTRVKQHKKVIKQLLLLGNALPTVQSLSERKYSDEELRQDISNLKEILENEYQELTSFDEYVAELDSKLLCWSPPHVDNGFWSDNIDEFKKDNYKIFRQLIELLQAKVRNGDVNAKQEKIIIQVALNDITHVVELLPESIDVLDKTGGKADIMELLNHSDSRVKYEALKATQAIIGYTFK
As to the kind of experiment: Biochemical V-ATPase (ATP hydrolysis) assay. As for the experimental part: V-ATPase was purified as described previously from yeast[82] using the detergent dodecylmaltoside and porcine kidney[83] using the detergent glycol-diosgenin. ATPase assays with purified V-ATPase were performed as described previously. 249C (mammalian: 0.1, 1, 10, 100 μM and yeast: 5, 10 and 100 μM) or BafA1 (1 μM) were added to the reaction and compared with a negative control to which only DMSO was added. Enzyme-coupled ATPase biochemical activity assays were performed in a 96-well plate as described previously. […]
appears to cause accumulation of high molecular weight entities. Representative of 3 independent experiments. […]
observed. Data shown are mean ± SD ( n = 3) Two-tailed student’s t-test (C) ATP-dependent fluorescence quenching in yeast (me an ± SD; n = 3 ) Two-t ailed student’s t-test (D) SDS PAGE over th e cou rse of recombinant human ATP6V1H protein purification. 1. Mark ers; 2. Total l ysate (GST-fusion […]); 3. Soluble lysate; 4.
GSTrap flow-through; 5. GSTrap elute; 6. Post thrombin cleavage (target 54 kDa, GST 25 kDa); 7. Subtractive GSTrap flow -through; 8. Markers; 9. Final sample, 1 µg protein load. Repres entative of 2 independent ex periments. (E) Structure of biotin- 249C. […]
interfere with V-ATPas e binding. ( F) Experimental schematic of Bio-la yer inferometr y (B L I) .
(§1) (1 picture or pasted object on this page, not shown here)

The nature of data set [2]: Maximum tolerated dose study. Format: in vivo. From the text:
MTD studies were outsourced and performed at a local CRO based on their established protocols.

The target in another data set is DDR1 (Homo sapiens, UniProt Q08345). The data set can be described thus: KINOMEscan Kd determination. Conditions: 11-point serial dilution, top 30,000 nM. Format: binding.
Chain of DDR1 (Q08345 19-913): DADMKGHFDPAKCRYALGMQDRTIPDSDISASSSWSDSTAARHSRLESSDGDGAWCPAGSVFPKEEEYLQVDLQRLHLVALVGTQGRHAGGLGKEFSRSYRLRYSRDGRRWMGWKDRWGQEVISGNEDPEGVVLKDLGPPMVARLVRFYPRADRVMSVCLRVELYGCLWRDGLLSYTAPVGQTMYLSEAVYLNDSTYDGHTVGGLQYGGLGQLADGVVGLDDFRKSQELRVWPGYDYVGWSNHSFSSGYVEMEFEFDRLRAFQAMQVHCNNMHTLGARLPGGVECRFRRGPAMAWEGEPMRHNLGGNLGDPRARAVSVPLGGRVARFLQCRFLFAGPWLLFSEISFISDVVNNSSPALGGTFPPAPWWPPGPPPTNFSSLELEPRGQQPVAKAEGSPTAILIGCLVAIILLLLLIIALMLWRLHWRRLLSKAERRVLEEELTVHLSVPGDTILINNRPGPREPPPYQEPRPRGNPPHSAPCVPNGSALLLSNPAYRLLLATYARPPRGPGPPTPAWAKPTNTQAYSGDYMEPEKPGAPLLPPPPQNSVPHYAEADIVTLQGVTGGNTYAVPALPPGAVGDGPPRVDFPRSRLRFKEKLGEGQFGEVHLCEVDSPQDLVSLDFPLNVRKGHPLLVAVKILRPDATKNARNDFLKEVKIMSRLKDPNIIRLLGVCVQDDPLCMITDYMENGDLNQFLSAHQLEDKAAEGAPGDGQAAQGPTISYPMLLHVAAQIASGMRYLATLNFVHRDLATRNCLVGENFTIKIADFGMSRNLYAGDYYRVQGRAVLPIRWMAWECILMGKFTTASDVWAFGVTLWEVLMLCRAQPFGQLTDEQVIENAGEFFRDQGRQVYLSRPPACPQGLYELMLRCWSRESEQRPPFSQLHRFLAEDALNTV
Source text: (§2) The KINOMEscan™ Profiling Service consisting of 468 human kinases was used to assess 249C inhibitor activity to check for off-target effects as previously described.
(§3) Supplementary Fi g u re 12: Compound 249C assessed for off-target effects using the KIN OME scanTM screening platform. (A) Selectivity (S-score) for 249C wher e the sco re is a qu antitative measu re o f compound selectivity against human kinases. It is calculate b y dividing the number of k inases that compounds bi nd to b y the total number of distinct kinases tested, excluding mutant variants (S = number of hits / number of assa ys). 1 hit out of >400 kinases is reported for test compound (249C) = 0.002. S(35) = number of non- mutant kinases with % ctrl <35/number of non- mutant kinases; (B) Kinome interaction map for 249C at 10,000 nM. Each red dot indicates a kinase found to bind, where larger dots indicate higher affinit y interactions.
(§4) 1 Tyrosine Kinase (TK) out of >400 kinases ( created in TREEspotTM ) with low affinity. This is calculated using
(§5) Dissociation constants (Kds) were determined using 249C at 30,000 nM, Hill slopes were set to - 1 and curves were fitted using a non- linear least square fit with the […]
as §1

The target in the next data set is DDR2 (Homo sapiens, UniProt Q16832). As to the kind of experiment: KINOMEscan Kd determination. Format: binding. Conditions: 11-point serial dilution, top 30,000 nM.
Chain of DDR2 (Q16832 22-855): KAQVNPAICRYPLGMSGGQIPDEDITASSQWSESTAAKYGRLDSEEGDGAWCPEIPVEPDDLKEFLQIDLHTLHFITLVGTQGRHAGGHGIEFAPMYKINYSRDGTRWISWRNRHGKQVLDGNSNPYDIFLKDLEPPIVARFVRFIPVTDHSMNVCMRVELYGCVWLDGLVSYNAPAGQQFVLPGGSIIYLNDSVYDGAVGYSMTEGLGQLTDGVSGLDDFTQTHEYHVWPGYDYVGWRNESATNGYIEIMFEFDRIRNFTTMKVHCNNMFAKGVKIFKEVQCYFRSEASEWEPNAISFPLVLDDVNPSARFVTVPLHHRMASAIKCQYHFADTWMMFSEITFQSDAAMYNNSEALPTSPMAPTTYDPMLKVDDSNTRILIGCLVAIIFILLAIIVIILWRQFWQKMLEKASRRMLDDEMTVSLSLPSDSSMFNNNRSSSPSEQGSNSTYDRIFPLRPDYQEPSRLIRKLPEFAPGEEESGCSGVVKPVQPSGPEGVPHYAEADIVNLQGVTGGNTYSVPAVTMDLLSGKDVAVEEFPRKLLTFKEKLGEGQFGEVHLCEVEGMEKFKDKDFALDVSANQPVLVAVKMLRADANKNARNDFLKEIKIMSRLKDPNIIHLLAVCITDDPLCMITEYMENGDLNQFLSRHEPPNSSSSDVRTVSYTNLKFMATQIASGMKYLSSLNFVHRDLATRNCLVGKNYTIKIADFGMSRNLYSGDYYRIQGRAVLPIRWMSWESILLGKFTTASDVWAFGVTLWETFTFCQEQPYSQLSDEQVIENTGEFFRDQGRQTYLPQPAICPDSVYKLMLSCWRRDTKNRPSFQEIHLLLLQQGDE
Source text: as §2, §3, §4, §5, §1

The next data set concerns MEFs KRASWT. As to the kind of experiment: Cell proliferation of Ras-less MEFs expressing human KRAS/BRAF. Conditions: Mus musculus.
The next data set concerns MEFs KRAS G12V. The description is as above. Particulars: Mus musculus.
For the next data set, the system named is MEFs KRAS Q61L. The data set is described as above. Conditions: Mus musculus.
The subject of another data set is MEFs KRAS Q61R. The description is as above. Conditions: Mus musculus.

The structures appear in SMILES notation.

T1 sequence (Q9UI12 whole entry): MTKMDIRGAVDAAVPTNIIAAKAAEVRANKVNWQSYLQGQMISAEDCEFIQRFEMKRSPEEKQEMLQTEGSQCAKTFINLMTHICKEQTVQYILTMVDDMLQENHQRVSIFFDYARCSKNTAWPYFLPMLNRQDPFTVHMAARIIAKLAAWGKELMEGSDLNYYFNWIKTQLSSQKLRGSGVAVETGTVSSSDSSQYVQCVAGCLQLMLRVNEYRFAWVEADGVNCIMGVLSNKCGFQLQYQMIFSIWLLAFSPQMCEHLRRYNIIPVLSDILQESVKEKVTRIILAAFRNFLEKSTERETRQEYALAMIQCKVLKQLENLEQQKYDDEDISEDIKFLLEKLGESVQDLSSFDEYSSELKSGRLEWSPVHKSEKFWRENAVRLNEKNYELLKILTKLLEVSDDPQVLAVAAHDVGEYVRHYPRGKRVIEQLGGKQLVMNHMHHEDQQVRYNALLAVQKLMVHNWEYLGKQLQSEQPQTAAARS
Protocol for MEFs KRAS G12V: (§6) Cell proliferation assays of stable cell lines treated with V-ATPase inhibitors 249C and BafA1, HCQ analog (DC661), KRASG12C inhibitor (AMG510) and autophagy inducer (CMA). For each bar, n = 3. Representative of 3 biological replicates (mean ± SD). Two-sided t-test with no adjustments for multiple comparisons.
(§7) Logarithmically growing cells were plated in antibiotic-free medium supplemented with 2% fetal bovine serum at a density of 5,000 cells per well. The next day, cells were treated in triplicates with increasing doses of in-house small molecule inhibitor drugs and a DMSO vehicle control for 3 days and subsequently assessed for cell viability by measurement of ATP with CellTiter-Glo Luminescent Cell Viability Assay (Promega). Signal intensity was read on a Glomax™ 96 Microplate Luminometer (Promega) with GLOMAX software (version 1.9.3) and percent cell survival was calculated based on the reading of vehicle control cells set as 100% using Excel (2012) and GraphPad Prism (version 6)Each compound was tested a minimum of 2 times with n = 3. All cell proliferation assays (cancer cell lines or MEFs) were done in a similar way.
Protocol for MEFs KRAS Q61L: as §7
Protocol for MEFs KRAS Q61R: as §7
Protocol for MEFs KRASWT: as §6, §7

Turning to `CN1CCOC(CNC(=O)C2(C)C(c3ccc(Cl)o3)C(c3ccc(F)cc3F)=NN2c2ccc(F)cc2F)C1` (stereo not shown) [Compound 249C], the Kd (usually the constant that tells how readily two partners part at equilibrium) came to 501 nM in [1], 5400 nM on DDR1 and 16000 nM at DDR2. The “Yeast V-ATPase activity” value on Yeast V-ATPase was “modest inhibition”. In addition, the body weight entry in data set [2] (150 mg/kg, after 21 days in vivo) is given as “no significant difference in body weight”. Also, the MTD – broadly, the highest dose tested that stayed within the study's limit of toxicity – at 21 days in [2] (mouse, in vivo, mice) worked out at 150 mg/kg. For the same compound, the IC50 (usually the concentration at which inhibition is half-maximal) in the data set with MEFs KRASWT came to 1250 nM; in the data set on MEFs KRAS G12V, 150 nM; in the data set with MEFs KRAS Q61L it was 310 nM; in the data set with MEFs KRAS Q61R, 550 nM.

For the origin of these results see article PMC9750872, “Ras-mutant cancers are sensitive to small molecule inhibition of V-type ATPases in mice” (Nature biotechnology, 2022).
